Measured values from ChEMBL document CHEMBL5126605, “Nucleic-Acid-Based Targeted Degradation in Drug Discovery” (J Med Chem, 2022).
pEC50, pIC50, pKd: −log10 of the molar value.

Columns and labels:
Huntingtin [1] = target: T1, Huntingtin (Homo sapiens, UniProt P42858); assay: Inhibition of HTT (unknown origin)
[2] = Binding affinity to Cy5-labeled SARS-CoV-2 Attenuator hairpin RNA incubated for 20 mins by microscale thermophoresis analysis; parameters: species or system Severe acute respiratory syndrome coronavirus 2
MDA-MB-231 [3] = assay: RIBOTAC activity at Pre-miR-21 RNA/RNase L in human MDA-MB-231 cells assessed as decrease in mature miR-21 levels at 0.2 uM by RT-qPCR analysis; assay type: cell-based; parameters: scale not given: the % may be the effect or the level left
MDA-MB-231 [4] = assay: Potency index, ratio of RIBOTAC activity of test compound to RIBOTAC activity of Dovitinib at Pre-miR-21 RNA/RNase L in human MDA-MB-231 cells assessed as decrease in mature miR-21 levels by RT-qPCR analysis; assay type: cell-based
[5] = Binding affinity to 5' Cy5-labeled Pre-miR-210 RNA (unknown origin) incubated for 30 mins in the presence of RNase L by microscale thermophoresis analysis
[6] = RIBOTAC activity at Pre-miR-21 RNA/RNase L in human MDA-MB-231 cells assessed as decrease in mature miR-21 levels by RT-qPCR analysis; assay type: cell-based
[7] = Selectivity index, ratio of Kd for binding affinity to 5' Cy5-labeled microRNA-210 hairpin precursor (unknown origin) to Kd for binding affinity to 5' Cy5 end-labeled DNA hairpin (unknown origin) incubated for 30 mins in the presence of RNase L by microscale thermophoresis analysis
[8] = Binding affinity to 5' Cy5 end-labeled DNA hairpin (unknown origin) incubated for 30 mins in the presence of RNase L by microscale thermophoresis analysis
MDA-MB-231 [9] = assay: RIBOTAC activity at Pre-miR-21 RNA/RNase L in human MDA-MB-231 cells assessed as decrease in mature miR-21 levels at 5 uM by RT-qPCR analysis; assay type: cell-based; parameters: scale not given: the % may be the effect or the level left
Huntingtin [10] = target: T1, Huntingtin; assay: Induction of human HTT degradation in human SH-SY5Y cells assessed as decrease in normal HTT protein levels at 125 nM by Western blot analysis; assay type: cell-based; parameters: scale not given: the % may be the effect or the level left
Huntingtin [11] = target: T1, Huntingtin; assay: Induction of human HTT degradation in human SH-SY5Y cells assessed as decrease in HTT-transcript levels at 125 nM; assay type: cell-based; parameters: scale not given: the % may be the effect or the level left
[12] = target: T2, von Hippel-Lindau disease tumor suppressor/Bromodomain-containing protein 4 (Homo sapiens, UniProt O60885+P40337); assay: PROTAC activity at VHL/BRD4 in human MCF7 cells assessed as BRD4 degradation by measuring maximum efficacy at 50 nM measured after 24 hrs by Western blot analysis relative to control; assay type: cell-based
T2 sequence (P40337 whole entry, looked up, other chains not shown): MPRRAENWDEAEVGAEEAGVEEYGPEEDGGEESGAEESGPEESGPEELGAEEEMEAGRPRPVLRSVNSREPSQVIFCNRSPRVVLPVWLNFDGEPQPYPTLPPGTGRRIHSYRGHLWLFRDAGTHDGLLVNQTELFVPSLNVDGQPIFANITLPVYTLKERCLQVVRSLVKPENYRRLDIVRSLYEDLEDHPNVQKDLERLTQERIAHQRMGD

MCF7 = assay: Antitumor activity human MCF7 cells xenografted in nude mouse assessed as tumor growth inhibition at 10 mg/kg, iv administered every other day for 21 days; assay type: functional; details: MCF7, 504 h, time 21 day, read-out: TGI
[13] = target: T2, von Hippel-Lindau disease tumor suppressor/Bromodomain-containing protein 4; assay: PROTAC activity at VHL/BRD4 in human MCF7 cells assessed as BRD4 degradation measured after 24 hrs by Western blot analysis; assay type: cell-based

T1 sequence (P42858 whole entry): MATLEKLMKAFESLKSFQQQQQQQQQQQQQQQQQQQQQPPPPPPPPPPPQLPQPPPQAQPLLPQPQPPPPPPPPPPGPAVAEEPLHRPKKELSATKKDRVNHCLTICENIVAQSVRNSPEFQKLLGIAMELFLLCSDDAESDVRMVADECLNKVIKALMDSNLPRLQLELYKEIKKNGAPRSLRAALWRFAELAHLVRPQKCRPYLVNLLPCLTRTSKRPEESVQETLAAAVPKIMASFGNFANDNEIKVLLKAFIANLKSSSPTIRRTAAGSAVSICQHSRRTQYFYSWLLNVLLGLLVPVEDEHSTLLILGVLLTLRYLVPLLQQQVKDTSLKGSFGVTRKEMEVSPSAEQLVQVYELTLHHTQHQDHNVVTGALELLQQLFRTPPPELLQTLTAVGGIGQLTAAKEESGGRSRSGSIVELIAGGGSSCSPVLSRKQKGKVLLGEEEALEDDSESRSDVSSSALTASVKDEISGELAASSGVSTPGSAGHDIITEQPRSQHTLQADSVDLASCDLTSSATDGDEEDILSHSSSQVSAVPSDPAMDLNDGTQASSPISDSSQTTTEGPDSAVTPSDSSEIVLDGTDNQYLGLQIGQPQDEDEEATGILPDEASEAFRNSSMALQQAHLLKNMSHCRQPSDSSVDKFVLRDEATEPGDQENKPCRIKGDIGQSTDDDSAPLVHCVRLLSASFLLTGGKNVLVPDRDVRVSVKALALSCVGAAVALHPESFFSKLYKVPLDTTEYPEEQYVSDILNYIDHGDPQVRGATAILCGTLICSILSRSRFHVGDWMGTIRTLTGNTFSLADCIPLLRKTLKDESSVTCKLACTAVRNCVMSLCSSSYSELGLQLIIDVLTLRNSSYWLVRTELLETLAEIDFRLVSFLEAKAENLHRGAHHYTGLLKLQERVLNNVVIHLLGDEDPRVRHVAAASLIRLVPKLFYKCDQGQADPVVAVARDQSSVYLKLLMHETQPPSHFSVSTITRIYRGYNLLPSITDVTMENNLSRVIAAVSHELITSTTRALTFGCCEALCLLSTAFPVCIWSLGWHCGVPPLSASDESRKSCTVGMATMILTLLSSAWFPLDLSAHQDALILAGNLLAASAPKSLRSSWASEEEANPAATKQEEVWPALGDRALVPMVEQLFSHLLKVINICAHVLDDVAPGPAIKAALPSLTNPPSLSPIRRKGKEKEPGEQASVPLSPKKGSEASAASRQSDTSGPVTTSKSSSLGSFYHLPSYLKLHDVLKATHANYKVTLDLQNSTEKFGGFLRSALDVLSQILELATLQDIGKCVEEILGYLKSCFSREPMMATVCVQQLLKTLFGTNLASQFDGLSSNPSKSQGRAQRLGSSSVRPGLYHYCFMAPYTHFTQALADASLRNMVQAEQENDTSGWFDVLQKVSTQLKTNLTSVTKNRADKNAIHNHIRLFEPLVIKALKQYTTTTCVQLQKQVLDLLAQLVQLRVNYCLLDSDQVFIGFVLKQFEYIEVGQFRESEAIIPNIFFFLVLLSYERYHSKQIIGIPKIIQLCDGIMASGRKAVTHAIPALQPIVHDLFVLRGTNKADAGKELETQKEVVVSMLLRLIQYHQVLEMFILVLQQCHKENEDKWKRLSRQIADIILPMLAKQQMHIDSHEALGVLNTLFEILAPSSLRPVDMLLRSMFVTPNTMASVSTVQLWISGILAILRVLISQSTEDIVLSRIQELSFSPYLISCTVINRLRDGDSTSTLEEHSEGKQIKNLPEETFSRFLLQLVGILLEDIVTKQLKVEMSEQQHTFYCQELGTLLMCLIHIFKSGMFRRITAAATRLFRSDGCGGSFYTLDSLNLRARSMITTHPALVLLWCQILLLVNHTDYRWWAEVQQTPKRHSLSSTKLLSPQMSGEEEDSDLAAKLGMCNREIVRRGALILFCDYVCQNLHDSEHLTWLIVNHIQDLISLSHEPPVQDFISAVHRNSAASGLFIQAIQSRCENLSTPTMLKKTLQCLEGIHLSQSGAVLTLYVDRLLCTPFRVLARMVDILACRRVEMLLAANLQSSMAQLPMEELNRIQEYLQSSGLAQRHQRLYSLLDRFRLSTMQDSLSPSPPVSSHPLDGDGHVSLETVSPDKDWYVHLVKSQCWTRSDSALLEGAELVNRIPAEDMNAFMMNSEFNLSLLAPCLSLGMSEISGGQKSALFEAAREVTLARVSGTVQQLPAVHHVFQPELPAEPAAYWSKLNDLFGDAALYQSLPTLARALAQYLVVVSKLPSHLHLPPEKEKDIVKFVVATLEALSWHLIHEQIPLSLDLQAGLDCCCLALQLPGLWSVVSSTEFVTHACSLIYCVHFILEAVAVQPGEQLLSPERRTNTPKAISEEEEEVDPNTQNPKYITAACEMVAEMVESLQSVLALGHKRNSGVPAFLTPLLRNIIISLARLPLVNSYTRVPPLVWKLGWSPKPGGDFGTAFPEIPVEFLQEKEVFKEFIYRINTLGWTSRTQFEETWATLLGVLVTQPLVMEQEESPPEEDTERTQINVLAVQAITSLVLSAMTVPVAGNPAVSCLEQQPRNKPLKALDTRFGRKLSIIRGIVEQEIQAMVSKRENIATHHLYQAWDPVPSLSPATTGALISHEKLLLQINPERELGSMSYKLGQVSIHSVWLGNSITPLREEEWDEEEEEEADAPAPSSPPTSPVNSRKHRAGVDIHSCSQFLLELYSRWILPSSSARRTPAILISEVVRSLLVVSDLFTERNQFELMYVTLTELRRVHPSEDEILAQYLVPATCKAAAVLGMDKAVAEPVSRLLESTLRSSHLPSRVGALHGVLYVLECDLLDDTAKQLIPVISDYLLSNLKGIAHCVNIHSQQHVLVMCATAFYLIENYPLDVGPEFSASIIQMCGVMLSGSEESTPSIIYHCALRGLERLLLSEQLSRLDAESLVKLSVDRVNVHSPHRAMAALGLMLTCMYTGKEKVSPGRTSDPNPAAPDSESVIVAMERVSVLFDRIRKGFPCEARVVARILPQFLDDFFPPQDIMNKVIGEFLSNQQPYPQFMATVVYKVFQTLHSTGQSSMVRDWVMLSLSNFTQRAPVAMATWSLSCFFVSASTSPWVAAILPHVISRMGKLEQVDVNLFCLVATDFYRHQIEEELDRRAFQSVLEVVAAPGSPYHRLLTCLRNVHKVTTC

With `CCN1CCC(c2cc3c(F)cc(-c4cc(C)c5nc(C)cn5n4)cc3nn2)CC1` as the molecule, how does the pIC50 (Huntingtin [1]) read?
Its pIC50 is 8.10.

With `CNc1nc(Nc2cccc(C(=O)O)c2)nc2ccccc12` as the molecule, how does the pKd [2] read?
Its pKd is 7.96.

Which results are given for `CCOC(=O)C1=C(Nc2ccccc2)S/C(=C\c2ccc(OCCOCCOCCOCCNC(=O)NCCN3CCN(c4ccc5nc(-c6c(N)c7c(F)cccc7[nH]c6=O)[nH]c5c4)CC3)c(O)c2)C1=O`?
Activity (MDA-MB-231 [3]): 30%; Ratio (MDA-MB-231 [4]): 5

With `CN1CCN(c2ccc3nc(-c4ccc5[nH]c(-c6cccc(OCCCC(=O)NCCCOCC(O)COP(=O)(O)O[C@@H]7[C@H](O)[C@@H](COP(=O)(O)O[C@@H]8[C@H](O)[C@@H](COP(=O)(O)O[C@@H]9[C@H](O)[C@@H](COP(=O)(O)O[C@@H]%10[C@H](O)[C@@H](COP(=O)(O)O)O[C@H]%10n%10cnc%11c(N)ncnc%11%10)O[C@H]9n9cnc%10c(N)ncnc%109)O[C@H]8n8cnc9c(N)ncnc98)O[C@H]7n7cnc8c(N)ncnc87)c6)nc5c4)[nH]c3c2)CC1` (some centres not stated) as the molecule, how does the pKd [5] read?
Its pKd is 6.47.

With `CC1(C)CC(Oc2ccc(-c3ccc(-c4ccnc(O)c4)cc3O)nn2)CC(C)(C)N1` as the molecule, how does the pIC50 (Huntingtin [1]) read?
The pIC50 was 7.40.

With `CCCN(CC(=O)N(CCC)CC(=O)N(CCC)CC(=O)N(CC(=O)NCCOCCOCCOCCOc1ccc(/C=C2\SC(Nc3ccccc3)=C(C(=O)OCC)C2=O)cc1O)Cc1cn(CCCNC(=O)CCCOc2ccc(-c3nc4ccc(-c5ccc(N6CCN(C)CC6)cc5)cc4[nH]3)cc2)nn1)C(=O)CN(Cc1cn(CCCNC(=O)CCCOc2ccc(-c3nc4cc(-c5ccc(N6CCN(C)CC6)cc5)ccc4[nH]3)cc2)nn1)C(C)=O` as the molecule, how does the pIC50 [6] read?
The pIC50 was 7.30.

What does the source list for `CN1CCN(c2ccc3nc(-c4ccc5[nH]c(-c6cccc(OCCCC(=O)NCCCN=[N+]=[N-])c6)nc5c4)[nH]c3c2)CC1`?
pKd [5]: 6.80; Ratio [7]: 5; pKd [8]: 6.21

With `CN1CCN(c2ccc3nc(-c4c(N)c5c(F)cccc5[nH]c4=O)[nH]c3c2)CC1` as the molecule, how does the Activity (MDA-MB-231 [9]) read?
The Activity was 30%.

With `CC1(C)CC(Oc2ccc(-c3ccc(-c4cn[nH]c4)cc3O)nn2)CC(C)(C)N1` as the molecule, how does the Activity (Huntingtin [10]) read?
The Activity was 53%.

And the Activity (Huntingtin [11])?
Its Activity is 95%.

With `Cc1ncsc1-c1ccc([C@H](C)NC(=O)[C@@H]2C[C@@H](O)CN2C(=O)[C@H](NC(=O)COCCOCCOCCNC(=O)C[C@@H]2N=C(c3ccc(Cl)cc3)c3c(sc(C)c3C)-n3c(C)nnc32)C(C)(C)C)cc1` as the molecule, how does the Emax [12] read?
Its Emax is > 90%.

What about the inhibition in vivo at 10 mg/kg (MCF7) of the same molecule?
The inhibition in vivo at 10 mg/kg was 59.8%.

What about the pEC50 [13] of the same molecule?
Its pEC50 is 7.89.

With `CCN1CCC(c2cc(C)c3nc(-c4ccc5nn(C)cc5c4)cc(=O)n3c2)CC1` as the molecule, how does the pIC50 (Huntingtin [1]) read?
The pIC50 was 7.10.
